Data taken from article PMC7182039 (Journal of medicinal chemistry, 2020).
Several values for one entry are separate records, joined by “and”; a condition that tells them apart may be missing. Equal values may be shown once. Read-outs that look alike come from different tables or passages of the source. Marks after values point to notes of the source that are not given here.

Assays:
[1] = Kinetic solubility by nephelometry; assay type: physicochemical; details: for sol6.5 / sol2.0: kinetic solubility, 1% DMSO, 30 min; for sol6.5: pH 6.5 phosphate buffer; for sol2.0: 0.01 M HCl (approx. pH 2.0)
[2] = In vitro metabolic stability in human liver microsomes; assay type: in vitro ADME; details: for h CLint: 37 °C, 0.4 mg/mL protein, NADPH
[3] = In vitro metabolic stability in mouse liver microsomes; assay type: in vitro ADME; details: 37 °C, 0.4 mg/mL protein, NADPH
[4] = tested on: foreskin fibroblast (HFF); test: Cytotoxicity screen; assay type: cell-based, human; details: 24 h, Alamar blue, data not shown
[5] = tested on: osteosarcoma (U-2 OS); test: Cytotoxicity screen; assay type: cell-based, human; details: 24 h, Alamar blue, data not shown
[6] = tested on: kidney (HEK 293T); test: Cytotoxicity screen; assay type: cell-based, human; details: 24 h, Alamar blue, data not shown
[7] = tested on: hepatocyte (HC-04); test: Cytotoxicity screen; assay type: cell-based, human; details: HC-04, 24 h, Alamar blue; data not shown
[8] = tested on: S. mansoni; details: adult infection, mice, single 400 mg/kg oral dose, cited from earlier work
[9] = tested on: juvenile stage of S. mansoni; details: mice, single 200 mg/kg oral dose; cited from earlier work
[10] = tested on: schistosomes; details: cited from earlier work

Structure (SMILES)	sol6.5 [1]	h CLint [2]	m CLint [3]	sol2.0 [1]	further results
O=C(O)COc1ccc([C@H]2CC[C@]3(CC2)OOC2(O3)C3CC4CC(C3)CC2C4)cc1Cl (stereo partly drawn) [Compound 7, cis-Adamantane-2-spiro-3 ′−8 ′-[3-chloro-4-(carboxymethoxy)-phenyl]-1′,2′,4′-trioxaspiro[4.5]decan]	3.1 to 6.3 µg/mL	< 7 μL/(min mg) protein	8 μL/(min mg) protein		cytotoxicity: concentration without inhibition of the cell line [4]: > 50 µM; cytotoxicity: concentration without inhibition of the cell line [5]: > 50 µM; cytotoxicity: concentration without inhibition of the cell line [6]: > 50 µM; cytotoxicity: concentration without inhibition of the cell line [7]: > 50 µM
CS(=O)(=O)O.O=C(O)CNCc1ccc([C@H]2CC[C@]3(CC2)OOC2(O3)C3CC4CC(C3)CC2C4)cc1 (stereo partly drawn) [Compound 17, cis-Adamantane-2-spiro-3′−8′-[4-[[(carboxymethyi)amino]-methyl]phenyi]-1′,2′,4′-trioxaspiro[4.5]decane mesyiate]	< 6.3 µg/mL	< 7 μL/(min mg) protein	10 μL/(min mg) protein	< 12.5 µg/mL	cytotoxicity: concentration without inhibition of the cell line [4]: > 50 µM; cytotoxicity: concentration without inhibition of the cell line [5]: > 50 µM; cytotoxicity: concentration without inhibition of the cell line [6]: > 50 µM; cytotoxicity: concentration without inhibition of the cell line [7]: > 50 µM
CC(=O)NC1C2CC3CC1CC(C2)C31OO[C@]2(CC[C@@H](c3ccc(OCC(=O)O)cc3)CC2)O1 (stereo partly drawn) [Compound 22, cis-6-Acetamidoadamantane-2-spiro-3′−8′-[4-(carboxymethoxy)phenyl]-1′,2′,4′-trioxaspiro[4.5]decane]	12.5 to 25 µg/mL	10 μL/(min mg) protein	< 7 μL/(min mg) protein	3.1 to 6.3 µg/mL	
CS(=O)(=O)O.CS(=O)(=O)O.O=C(O)CNCc1ccc([C@H]2CC[C@]3(CC2)OOC2(O3)C3CC4CC2CC(C3)N4)cc1 (stereo partly drawn) [Compound 25, cis-6-Azaadamantane-2-spiro-3′−8′-[4-[[(carboxymethyl)-amino]methyl]phenyl]-1′,2′,4′-trioxaspiro[4.5]decane mesylate]	50 to 100 µg/mL	<7/<7 μL/(min mg) protein	<7/<7 μL/(min mg) protein	> 100 µg/mL	
CS(=O)(=O)O.NC1C2CC3CC1CC(C2)C31OO[C@]2(CC[C@@H](c3ccc(OCC(=O)O)cc3)CC2)O1 (stereo partly drawn) [Compound 23, cis-6-Aminoadamantane-2-spiro-3′−8′-[4-(carboxymethoxy)-phenyl]-1′,2′,4′-trioxaspiro[4.5]decane mesylate]	< 1.6 µg/mL	13 μL/(min mg) protein	8 μL/(min mg) protein	6.3 to 12.5 µg/mL	
O=C(O)CCCCOc1ccc([C@H]2CC[C@]3(CC2)OOC2(O3)C3CC4CC(C3)CC2C4)cc1 (stereo partly drawn) [Compound 10, cis-Adamantane-2-spiro-3′−8′-[4-(carboxybutoxy)phenyl]-1′,2′,4′-trioxaspiro[4.5]decan]	<1.6/<1.6 μg/mL	< 7 μL/(min mg) protein	13 μL/(min mg) protein	<1.6/<1.6 μg/mL	
O=C(O)c1ccc([C@H]2CC[C@]3(CC2)OOC2(O3)C3CC4CC(C3)CC2C4)cc1 (some centres unmarked) [Compound 3]					S. mansoni WBR (%) 1 × 400 mg/kg po [8]: 74^i,j %; S. mansoni WBR (%) 1 × 200 mg/kg po [9]: 100% and 84^a %
O=C([O-])C1CCN(CCOc2ccc([C@H]3CC[C@]4(CC3)OOC3(O4)C4CC5CC(C4)CC3C5)cc2)CC1.[Na+] (some centres unmarked) [Compound 15]	< 1.6 µg/mL	< 7 μL/(min mg) protein	9 μL/(min mg) protein	3.1 to 6.3 µg/mL	
O=C(O)COc1ccc([C@H]2CC[C@]3(CC2)OOC2(O3)C3CC4CC(C3)CC2C4)cc1 (some centres unmarked) [Compound 2]	6.3 to 12.5 µg/mL				S. mansoni WBR (%) 1 × 400 mg/kg po ([8]; 400 mg/kg): 80^i,j %; S. mansoni WBR (%) 1 × 200 mg/kg po [9]: 100^a %
O=C(O)CN1CCC(Oc2ccc([C@H]3CC[C@]4(CC3)OOC3(O4)C4CC5CC(C4)CC3C5)cc2)CC1 (some centres unmarked) [Compound 16]		<7/<7 μL/(min mg) protein	<7/<7 μL/(min mg) protein		solubility ([1]; DMSO): < 1000 µg/mL; cytotoxicity: concentration without inhibition of the cell line [4]: > 50 µM; cytotoxicity: concentration without inhibition of the cell line [5]: > 50 µM; cytotoxicity: concentration without inhibition of the cell line [6]: > 50 µM; cytotoxicity: concentration without inhibition of the cell line [7]: > 50 µM
c1cc([C@H]2CC[C@]3(CC2)OO[C@]2(O3)C3CC4CC(C3)CC2C4)ccc1OCCN1CCOCC1 [Compound 1]					antischistosomal activity [10]: no antischistosomal activity
O=C(O)CNC(=O)COc1ccc([C@H]2CC[C@]3(CC2)OOC2(O3)C3CC4CC(C3)CC2C4)cc1 (stereo partly drawn) [Compound 14, cis-Adamantane-2-spiro-3′−8′-[4-[2-[(carboxymethyl)amino]-2-oxoethoxy]phenyl]-1′,2′,4′-trioxaspiro[4.5]decane]		<7/CND^a,b μL/(min mg) protein		12.5 to 25 µg/mL	conversion to 2 in human liver microsomes [2]: converted to 2 in human; cytotoxicity: concentration without inhibition of the cell line [4]: > 50 µM; cytotoxicity: concentration without inhibition of the cell line [5]: > 50 µM; cytotoxicity: concentration without inhibition of the cell line [6]: > 50 µM; cytotoxicity: concentration without inhibition of the cell line [7]: > 50 µM
O=C(O)c1cccc([C@H]2CC[C@]3(CC2)OOC2(O3)C3CC4CC(C3)CC2C4)c1 (some centres unmarked) [Compound 4]	<1.6/<1.6 μg/mL	12 μL/(min mg) protein	30 μL/(min mg) protein	<1.6/<1.6 μg/mL	
O=C(O)COc1ccc([C@H]2CC[C@]3(CC2)OOC2(O3)C3CC4CC2CC(C3)C4O)cc1 (stereo partly drawn) [Compound 21, cis-6-Hydroxyadamantane-2-spiro-3′−8′-[4-(carboxymethoxy)-phenyl]-1′,2′,4′-trioxaspiro[4.5]decane]	25 to 50 µg/mL	<7/<7 μL/(min mg) protein	<7/<7 μL/(min mg) protein		
